Test results: patent US5432274A, “Redox dye and method of preparation thereof using 2-hydroxypropyl-β-cyclodextrin and 1,1'-dimethylferrocene” (National Research Council of Canada, priority 1993, dated 1995)

Legend:
glucose oxidase = molecular target: T1, glucose oxidase (Aspergillus niger, UniProt P13006); assay: Kinetic studies of the blue dye with oxidases (Michaelis-Menten constant); format: biochemical; conditions: compared with lactate oxidase and xanthine oxidase
T1 construct: purchased Sigma (St. Louis, Mo.)
T1 sequence (P13006 17-605): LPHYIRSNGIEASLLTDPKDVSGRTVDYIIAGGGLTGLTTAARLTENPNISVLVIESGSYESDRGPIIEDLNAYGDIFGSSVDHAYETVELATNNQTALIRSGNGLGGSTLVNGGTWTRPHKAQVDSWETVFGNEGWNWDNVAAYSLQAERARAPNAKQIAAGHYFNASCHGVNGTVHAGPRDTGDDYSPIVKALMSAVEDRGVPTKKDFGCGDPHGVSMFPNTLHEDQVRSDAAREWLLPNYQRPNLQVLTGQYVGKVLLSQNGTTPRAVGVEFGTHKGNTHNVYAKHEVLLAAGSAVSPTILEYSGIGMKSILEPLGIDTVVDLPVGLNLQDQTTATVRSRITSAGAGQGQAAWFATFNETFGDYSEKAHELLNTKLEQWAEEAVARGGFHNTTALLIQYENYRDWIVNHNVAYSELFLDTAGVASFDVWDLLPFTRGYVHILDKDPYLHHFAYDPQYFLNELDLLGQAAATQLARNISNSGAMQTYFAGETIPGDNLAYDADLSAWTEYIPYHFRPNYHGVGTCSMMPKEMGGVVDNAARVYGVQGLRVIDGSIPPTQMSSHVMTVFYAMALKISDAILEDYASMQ

[1] = water; cited from earlier work
[2] = Sensitivity of the dye / its absorption characteristics to pH variation; format: physicochemical; conditions: products of chemical oxidation by ceric sulfate or iodine/KI
From the text: It was also noted that the DMFeCp2 -hp-β-CD complex stored at room temperature began to turn green, indicating a preference toward the oxidized state. As also reported, 15 the redox potential of DMFeCp2 is lowest (100 mV) among several known ferrocene-related compounds and this may contribute to the stability of DMFeCp2^+ in comparison to FeCp2^+. Both forms of ferricinium were insensitive to pH variation from 2-11. This characteristic is of advantage since the assay can be performed regardless of some fluctuation in pH and is applicable for a variety of oxidases with different pH optima. Due to the instability of the concentrated FeCp2^+, further studies focused on the electrochemically produced DMFeCp2^+.
Both FeCp2 and DMFeCp2 were oxidized by ceric sulfate or iodine/KI to FeCp2 H^+, (ferrocenonium) and DMFeCp2 H^+ (1,1'-dimethylferrocenonium), respectively. The reaction was almost instantaneous and the spectra of these two cation species were identical to those of ferricinium and 1,1'-dimethylferricinium. […] Such results were not completely unexpected since in strong acid media ferrocene was reported to undergo extensive protonation on the metal atom.

[3] = prepared with soluble bilirubin oxidase, stored at 4° C.
Procedure: During the time course of oxidation, the current decreased and the solution turned from yellow to green and finally to dark blue. The development of the blue color was monitored at the absorption maximum for FeCp2^+ at 620 nm or DMFeCp2^+ at 650 nM (FIG. 2 A, B).
The enzyme was destroyed by lowering the pH to 2.5 and after 2 min incubation, the pH was readjusted to 6.8. […] It should be noted that the absorption characteristics of the blue dye were not affected by a pH variation from 2.5 to 11.

Compound | solubility of the cyclodextrin in aqueous solutions [1] | stability against changes in pH [2] | also measured
1,1'-dimethylferricinium [DMFeCp2^+] |  |  | Michaelis-Menten constant for the blue dye (glucose oxidase): noticeably higher
2-hydroxypropyl-β-cyclodextrin [Hp-β-CD] | 50 % w/v |  | 
CC1C=CC=C1.C[c-]1cccc1.[Fe+2] [DMFeCp2 H^+, 1,1'-dimethylferrocenonium] |  | not stable against changes in pH | 
OC[C@H]1O[C@@H]2O[C@H]3[C@H](O)[C@@H](O)[C@@H](O[C@H]4[C@H](O)[C@@H](O)[C@@H](O[C@H]5[C@H](O)[C@@H](O)[C@@H](O[C@H]6[C@H](O)[C@@H](O)[C@@H](O[C@H]7[C@H](O)[C@@H](O)[C@@H](O[C@H]1[C@H](O)[C@H]2O)O[C@@H]7CO)O[C@@H]6CO)O[C@@H]5CO)O[C@@H]4CO)O[C@@H]3CO [α-CD, α-cyclodextrin] | 12-16 % w/v |  | 
ferricinium [FeCp2^+] |  |  | time stable [3]: 2 months
ferrocenonium [FeCp2 H^+] |  | not stable against changes in pH | 
